Measurements: patent publication US4159384A, “Phenenyltris (carbonylimino)multi-anionic substituted triphenyl acids and salts” (American Cyanamid Company, priority 1978, dated 1979)
Structures can show the parent of a compound that is named as a salt.

Test system: shunt pathway
Test: Test, Code 036 (C-Shunt inhibitor): lysis of fragile human erythrocytes in autologous serum, cobra venom factor
Assay type: biochemical
Conditions: in vitro, appropriate dilutions of the test compound
Description: An active inhibitor protects C2 from C1 and C4; (ii) Test, Code 035 (C3-C9 inhibitor)--This test determines the ability of the late components of human complement (C3-C9) to lyse EAC 142 in the presence of appropriate dilutions of the test compound. An active inhibitor protects EAC 142 from lysis by human C3-C9; (iii) Test, Code 036 (C-Shunt inhibitor)--In this test human erythrocytes rendered fragile are lysed in autologous serum via the shunt pathway activated by cobra venom factor in the presence of appropriate dilutions of the test compound. Inhibition of the shunt pathway results in failure of lysis; (iv) Forssman Vasculitis Test--Here, the well known complement dependent lesion, Forssman vasculitis, is produced in guinea pigs by intradermal injection of rabbit anti-Forssman antiserum. […]

O=C(Nc1cc(C(=O)O)c(O)c(S(=O)(=O)O)c1)c1cc(C(=O)Nc2cc(C(=O)O)c(O)c(S(=O)(=O)O)c2)cc(C(=O)Nc2cc(C(=O)O)c(O)c(S(=O)(=O)O)c2)c1 [5,5',5"-[s-Phenenyltris(carbonylimino)]tri-3-sulfo salicylic acid trisodium salt]
Shunt Inhibition 036 Wells: +1 Wells
